The target of experiment [1] is T1, Thymidine phosphorylase (Escherichia coli K-12, UniProt P07650). Briefly: Inhibition of [3H]methylthymidine binding to Escherichia coli thymidine phosphorylase after 20 mins by scintillation counting.
Experiment [2] addresses Thymidine phosphorylase (Escherichia coli K-12) (UniProt P07650). Briefly: Inhibition of [3H]methylthymidine binding to Escherichia coli thymidine phosphorylase at 20 uM after 20 mins by scintillation counting.
For experiment [3], the target named is T1, Thymidine phosphorylase. As to the kind of experiment: Inhibition of [3H]methylthymidine binding to Escherichia coli thymidine phosphorylase after 10 mins by scintillation counting.
Experiment [4] concerns the target Thymidine phosphorylase (Escherichia coli K-12) (UniProt P07650). As to the kind of experiment: Inhibition of [3H]methylthymidine binding to Escherichia coli thymidine phosphorylase at 100 uM after 20 mins by scintillation counting.

One may read the IC50 as the point on the concentration scale where inhibition reaches its midpoint. A low value points to greater potency. By inhibition is commonly meant the share of the control response that was lost under treatment.

T1 sequence (P07650 whole entry): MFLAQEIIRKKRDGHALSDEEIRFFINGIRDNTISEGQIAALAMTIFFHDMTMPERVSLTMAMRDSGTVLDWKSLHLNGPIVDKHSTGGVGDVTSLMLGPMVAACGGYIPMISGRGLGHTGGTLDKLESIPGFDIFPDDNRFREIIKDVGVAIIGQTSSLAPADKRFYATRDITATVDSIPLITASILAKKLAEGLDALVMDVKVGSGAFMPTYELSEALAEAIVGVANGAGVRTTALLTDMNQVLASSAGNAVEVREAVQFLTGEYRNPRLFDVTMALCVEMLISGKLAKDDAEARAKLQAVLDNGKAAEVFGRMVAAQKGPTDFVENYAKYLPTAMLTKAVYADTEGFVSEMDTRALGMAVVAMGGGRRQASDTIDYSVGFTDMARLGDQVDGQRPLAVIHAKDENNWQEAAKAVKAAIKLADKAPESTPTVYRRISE
Thymidine phosphorylase (Escherichia coli K-12), sequence (P07650 whole entry, looked up): as the sequence (P07650 whole entry) above

For `O=c1[nH]c(=O)n(CCCCCCCCP(=O)(O)O)c2c[nH]cc12`, on Thymidine phosphorylase [1], the concentration for half-maximal inhibition (IC50) is 6.8 µM.

`O=c1[nH]c(=O)n(CCCCCCCCP(=O)(O)O)c2[nH]ccc12`: the inhibition in experiment [2] was found to be 48%; in experiment [4] it was 83%. At Thymidine phosphorylase [3], the half-maximal inhibitory concentration (IC50) came out at 11.4 µM.

As for `O=c1[nH]c(=O)c2cn(CCCCCCCCP(=O)(O)O)cc2[nH]1`, at Thymidine phosphorylase [1], the half-maximal inhibitory concentration (IC50) is 12 µM.

In the case of `O=c1[nH]c(=O)c2cn(CCCCCCCCn3cc4[nH]c(=O)[nH]c(=O)c4c3)cc2[nH]1`, the IC50 at Thymidine phosphorylase [1] amounted to 3.5 µM. This IC50 lies about 3.4-fold lower than the previous one.

These data come from ChEMBL document CHEMBL1641495, “8-Aza-7,9-dideazaxanthine acyclic nucleoside phosphonate inhibitors of thymidine phosphorylase” (Bioorg Med Chem Lett, 2011).
